Measured values: patent US7932086B2, “Commercially viable process for in vitro mass culture of Jatropha curcas” (Reliance Life Sciences Pvt. Ltd., priority 2007, dated 2011)

System: Jatropha curcas elongated shoots
Experiment: in vitro rooting of elongated shoots
Assay type: cell-based
Conditions: 4.9 μM in half strength Murashige & Skoog Basal Medium

In the case of `O=C(O)CCCc1c[nH]c2ccccc12` [IBA, Indole-3-butyric acid], the root formation is reported as “well-formed roots”.
